These results are taken from US20120220581A1, “IMIDAZO[1,2-b]PYRIDAZINE DERIVATIVES AND THEIR USE AS PDE10 INHIBITORS” (Janssen-Cilag, S.A., priority 2009, published 2012).

Read-outs that look alike come from different tables or passages of the source.

For experiment [1], the system named is SCH-23390-induced hypolocomotion in mice. Nature of the experiment: SCH-23390-induced hypolocomotion in mice. The format is in vivo. The conditions noted are these: Mus musculus. The method, then: SCH-23390 (0.08 mg/kg, i.v.)-induced hypolocomotion was evaluated over a 30-min period starting immediately after the SCH-23390 challenge in male NMRI mice pretreated 0.5 h earlier with test compound or solvent. Averaged activity in solvent-treated control mice was 1540±559 counts (mean±SD; n=103). Criterion for drug-induced reversal of the SCH-23390-induced hypolocomotion: total distance: >2500 counts (2.9% false positives in controls).

For experiment [2], the target named is T1, PDE10 (Rattus norvegicus, UniProt Q9QYJ6).
T1 construct: from tissue; host or cells: rat brain sections, striatum (in vivo dosing, ex vivo autoradiography)
T1 sequence (Q9QYJ6 1-794): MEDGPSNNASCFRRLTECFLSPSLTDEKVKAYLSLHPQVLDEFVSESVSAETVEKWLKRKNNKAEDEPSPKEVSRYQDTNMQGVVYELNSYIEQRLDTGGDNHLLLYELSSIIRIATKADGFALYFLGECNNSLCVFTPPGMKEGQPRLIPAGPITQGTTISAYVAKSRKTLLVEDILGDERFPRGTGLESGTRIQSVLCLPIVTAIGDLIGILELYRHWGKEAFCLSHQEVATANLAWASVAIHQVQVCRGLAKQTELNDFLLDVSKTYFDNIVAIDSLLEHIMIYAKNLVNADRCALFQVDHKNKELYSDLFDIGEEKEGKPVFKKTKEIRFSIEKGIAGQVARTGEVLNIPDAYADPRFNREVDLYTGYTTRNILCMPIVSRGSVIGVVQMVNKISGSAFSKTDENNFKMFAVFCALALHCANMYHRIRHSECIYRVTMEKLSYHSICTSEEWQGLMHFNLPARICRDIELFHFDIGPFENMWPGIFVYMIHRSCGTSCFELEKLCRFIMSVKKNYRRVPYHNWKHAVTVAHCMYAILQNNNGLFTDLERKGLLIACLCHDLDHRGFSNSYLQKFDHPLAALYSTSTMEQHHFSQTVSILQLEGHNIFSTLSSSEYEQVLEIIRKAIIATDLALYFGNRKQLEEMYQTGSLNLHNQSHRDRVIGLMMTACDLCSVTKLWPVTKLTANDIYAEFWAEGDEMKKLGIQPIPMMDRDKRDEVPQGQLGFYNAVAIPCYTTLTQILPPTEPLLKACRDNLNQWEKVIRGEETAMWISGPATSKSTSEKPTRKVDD
Nature of the experiment: PDE10 occupancy ([3H]-MP-10, striatum). The format is in vivo. The conditions noted are these: rat; for ED50: dose response; for receptor occupancy at 10 mg/kg: single dose 10 mg/kg, subcutaneous, read-out: SD sc % occupancy at 10 mg/kg. The procedure, abridged:
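Male Wistar rats (200 g) dosed s.c. or p.o.; occupancy measured 1 h post-dose. [^3H]-MP-10 (10 μCi/animal) given i.v. 30 min before sacrifice.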

The subject of experiment [3] is PCP-induced hyperlocomotion in rats. Nature of the experiment: PCP-induced hyperlocomotion in rats. The format is in vivo. The settings on record: Rattus norvegicus. The method, then: Motor activity [horizontal activity (locomotion) and vertical activity (rearing)] was recorded in male Wiga rats (body weight: 175-275 g; housed overnight in groups of 7 rats) using microprocessor-based activity monitors (MED Associates; length×width×height: 43.2×43.2×41.5 cm) over a period of 30 min. The resolution of the system was set at 100 msec. Total distance was defined as the distance traveled, measured by changes in the number or location of interrupted xy-beams (located in two arrays of 32 infrared light beams (1.25 cm apart) perpendicular to each other in a horizontal plane 2.0 cm above the floor). Vertical activity was defined as the number of periods of continuous breaks reported by an infrared array of 32 light beams in a horizontal plane 13 cm above the floor. The intensity of the light within the activity meters (measured in the centre at floor level) ranged between 110 and 130 LUX.
Male Wiga rats (200 to 260 g) were pretreated with test compound or solvent (10 ml/kg, s.c.) and placed in individual cages. At a predefined interval thereafter (60 min.), the rats were challenged with PCP (1.25 mg/kg, i.v.) and motor activity was measured over a period of 30 min starting immediately after the PCP challenge. […]

For experiment [4], the target named is PDE4D3 (Homo sapiens, UniProt Q08499). Nature of the experiment: In vitro PDE selectivity assay (SPA), PDE4D3. The format is biochemical. The settings on record: hPDE4D3; read-out: PDE 4D3 (expressed as pIC50) (converted). The procedure, abridged: (§1)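 Inhibition of each PDE isoform was measured by scintillation proximity assay with ³H-cyclic nucleotide substrate, using incubation buffer, substrate concentration, incubation time and stop solution adapted per isoform. Compounds were tested in dose-response against 1% DMSO controls and enzyme-free blanks. IC50 came from a least-squares fit of blank-subtracted % of control versus concentration.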

For experiment [5], the target named is PDE5A3 (Homo sapiens, UniProt O76074). Nature of the experiment: In vitro PDE selectivity assay (SPA), PDE5A3. The format is biochemical. The conditions noted are these: hPDE5A3; read-out: PDE 5A3 (expressed as pIC50) (converted). The procedure, abridged:
as §1

Where [6] appears, read: sc, subcutaneous administration, read-out: PDE10 in vivo occupancy ED50 sc.
The mark [7] stands for this setting: oral administration, read-out: PDE10 in vivo occupancy ED50 po.

Chain of PDE4D3 (Q08499 1-673 isoform Q08499-2): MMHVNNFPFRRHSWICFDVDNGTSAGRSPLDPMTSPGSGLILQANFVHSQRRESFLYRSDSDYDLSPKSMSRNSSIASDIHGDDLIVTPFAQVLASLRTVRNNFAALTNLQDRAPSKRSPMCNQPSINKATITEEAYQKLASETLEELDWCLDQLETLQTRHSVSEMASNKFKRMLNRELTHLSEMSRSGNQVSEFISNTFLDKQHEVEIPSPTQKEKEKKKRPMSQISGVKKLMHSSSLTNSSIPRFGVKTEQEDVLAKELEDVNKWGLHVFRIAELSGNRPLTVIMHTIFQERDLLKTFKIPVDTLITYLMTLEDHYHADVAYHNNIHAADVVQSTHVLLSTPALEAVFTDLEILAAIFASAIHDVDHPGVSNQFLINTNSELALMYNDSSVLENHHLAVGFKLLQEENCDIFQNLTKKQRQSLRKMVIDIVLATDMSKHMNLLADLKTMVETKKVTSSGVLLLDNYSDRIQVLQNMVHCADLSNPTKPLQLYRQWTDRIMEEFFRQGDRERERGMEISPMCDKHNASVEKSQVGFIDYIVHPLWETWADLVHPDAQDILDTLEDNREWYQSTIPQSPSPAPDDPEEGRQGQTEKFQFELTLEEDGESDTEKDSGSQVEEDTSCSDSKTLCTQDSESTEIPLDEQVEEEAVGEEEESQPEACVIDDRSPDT

Take `COCCc1ccc(-c2c(C)nc3c(N4CCOCC4)ccnn23)cn1` [compound 1, 3-[6-(2-methoxyethyl)-3-pyridinyl]-2-methyl-8-(4-morpholinyl)-imidazo[1,2-b]pyridazine]: the ED50 in experiment [1] stood at 7.1 mg/kg; in experiment [2] (setting [6]) it was 0.48 mg/kg; in experiment [2] (setting [7]), 1.4 mg/kg; in experiment [3], 2 mg/kg. Further, the receptor occupancy at 10 mg/kg in experiment [2] (sc) stood at 76%. Besides, the IC50 in experiment [4] was 30.9 µM; in experiment [5], 17 µM.
In the case of `COCCOc1ccc(-c2c(C)nc3c(-c4ccncc4)ccnn23)cn1` [compound 21, 3-[6-(2-methoxyethoxy)-3-pyridinyl]-2-methyl-8-(4-pyridinyl)-imidazo[1,2-b]pyridazine], the ED50 in experiment [1] was determined as 5 mg/kg; in experiment [2] (setting [6]), 2.6 mg/kg; in experiment [2] (setting [7]), 14 mg/kg; in experiment [3], 6.1 mg/kg. In experiment [2] (sc), the receptor occupancy at 10 mg/kg is 61%. The IC50 in experiment [4] is 28.2 µM; in experiment [5], 19.1 µM.
